Several values for one entry are separate records, joined by “and”; a condition that tells them apart may be missing. Equal values may be shown once. Read-outs that look alike come from different tables or passages of the source.
Key:
TwinStrep-GST-HDAC10 = molecular target: T1, TwinStrep-GST-HDAC10 (Homo sapiens, UniProt Q969S8); experiment: HDAC10 TR-FRET assay (Tubastatin-AF647-Tracer displacement); format: binding
T1 construct: made in house; host or cells: Sf21 insect cells (baculovirus, pFastBac1)
T1 sequence (Q969S8 1-669): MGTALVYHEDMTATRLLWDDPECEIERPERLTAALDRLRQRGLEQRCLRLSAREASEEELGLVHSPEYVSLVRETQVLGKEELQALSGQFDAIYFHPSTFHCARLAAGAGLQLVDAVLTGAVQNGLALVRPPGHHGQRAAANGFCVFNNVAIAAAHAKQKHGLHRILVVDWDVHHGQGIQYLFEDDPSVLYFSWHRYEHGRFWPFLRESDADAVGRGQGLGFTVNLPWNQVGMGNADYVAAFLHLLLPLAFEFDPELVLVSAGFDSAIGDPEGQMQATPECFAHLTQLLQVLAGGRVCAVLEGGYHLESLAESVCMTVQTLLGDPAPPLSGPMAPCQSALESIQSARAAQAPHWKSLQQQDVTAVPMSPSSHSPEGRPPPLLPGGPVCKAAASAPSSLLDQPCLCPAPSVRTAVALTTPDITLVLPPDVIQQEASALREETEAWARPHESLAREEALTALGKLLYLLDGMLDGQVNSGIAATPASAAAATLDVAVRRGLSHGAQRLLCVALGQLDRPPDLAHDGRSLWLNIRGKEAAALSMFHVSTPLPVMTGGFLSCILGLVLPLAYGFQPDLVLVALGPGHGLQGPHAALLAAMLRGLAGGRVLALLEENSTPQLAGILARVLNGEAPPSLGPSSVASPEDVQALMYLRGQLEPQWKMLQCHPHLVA

HDAC1 [1] = molecular target: T2, HDAC1 (Homo sapiens, UniProt Q13547); experiment: HDAC1 (ZMAL) fluorogenic activity assay; format: biochemical; details: read-out: HDAC1 (ZMAL) percent enzyme inhibition
T2 construct: purchased BPS Bioscience 50051

HDAC6 [2] = molecular target: T3, HDAC6 (Homo sapiens, UniProt Q9UBN7); experiment: HDAC6 (ZMAL) fluorogenic activity assay; format: biochemical; details: for inhibition at 1 µM / inhibition at 10 µM: read-out: HDAC6 (ZMAL) percent enzyme inhibition
T3 construct: purchased BPS Bioscience 50006
T3 sequence (Q9UBN7 1-1215): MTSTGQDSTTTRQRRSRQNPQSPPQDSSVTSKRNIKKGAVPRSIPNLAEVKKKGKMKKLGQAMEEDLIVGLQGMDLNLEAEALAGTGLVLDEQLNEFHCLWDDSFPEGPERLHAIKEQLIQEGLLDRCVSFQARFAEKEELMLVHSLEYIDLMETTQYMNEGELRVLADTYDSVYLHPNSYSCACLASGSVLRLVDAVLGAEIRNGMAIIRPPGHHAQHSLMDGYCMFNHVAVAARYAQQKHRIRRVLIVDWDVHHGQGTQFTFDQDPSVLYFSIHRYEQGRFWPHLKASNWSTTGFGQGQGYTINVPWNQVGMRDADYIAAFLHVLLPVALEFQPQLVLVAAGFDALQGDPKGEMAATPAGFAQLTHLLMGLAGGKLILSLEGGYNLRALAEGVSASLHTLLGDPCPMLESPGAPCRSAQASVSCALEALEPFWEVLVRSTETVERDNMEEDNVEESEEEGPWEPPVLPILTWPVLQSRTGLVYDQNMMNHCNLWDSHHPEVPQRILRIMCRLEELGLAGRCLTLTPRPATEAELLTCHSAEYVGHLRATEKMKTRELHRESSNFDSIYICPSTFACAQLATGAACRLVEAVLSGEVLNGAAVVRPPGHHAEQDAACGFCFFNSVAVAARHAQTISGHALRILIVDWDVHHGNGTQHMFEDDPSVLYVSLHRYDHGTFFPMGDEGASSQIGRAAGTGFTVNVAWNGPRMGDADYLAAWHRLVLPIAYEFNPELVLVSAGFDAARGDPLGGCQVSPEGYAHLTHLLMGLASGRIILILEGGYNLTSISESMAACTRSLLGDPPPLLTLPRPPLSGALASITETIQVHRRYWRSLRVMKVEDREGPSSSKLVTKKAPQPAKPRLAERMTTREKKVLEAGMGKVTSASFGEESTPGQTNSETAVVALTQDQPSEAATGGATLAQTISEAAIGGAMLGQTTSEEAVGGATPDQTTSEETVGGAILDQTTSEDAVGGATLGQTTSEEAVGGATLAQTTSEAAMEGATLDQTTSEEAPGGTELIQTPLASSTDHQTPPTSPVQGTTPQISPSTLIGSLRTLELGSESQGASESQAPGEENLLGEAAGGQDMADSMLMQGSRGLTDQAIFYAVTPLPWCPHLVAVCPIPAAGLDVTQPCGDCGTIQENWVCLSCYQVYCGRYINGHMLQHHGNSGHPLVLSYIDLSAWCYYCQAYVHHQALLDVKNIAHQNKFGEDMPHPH

zebrafish HDAC10 = molecular target: T4, zebrafish HDAC10 (Danio rerio, UniProt F1QCV2); experiment: Zebrafish HDAC10 assay (zHDAC10), Ac-spermidine-AMC substrate; format: biochemical; details: for inhibition at 0.1 µM / inhibition at 1 µM / inhibition at 10 µM: read-out: zHDAC10 percent enzyme inhibition
T4 sequence (F1QCV2 1-675): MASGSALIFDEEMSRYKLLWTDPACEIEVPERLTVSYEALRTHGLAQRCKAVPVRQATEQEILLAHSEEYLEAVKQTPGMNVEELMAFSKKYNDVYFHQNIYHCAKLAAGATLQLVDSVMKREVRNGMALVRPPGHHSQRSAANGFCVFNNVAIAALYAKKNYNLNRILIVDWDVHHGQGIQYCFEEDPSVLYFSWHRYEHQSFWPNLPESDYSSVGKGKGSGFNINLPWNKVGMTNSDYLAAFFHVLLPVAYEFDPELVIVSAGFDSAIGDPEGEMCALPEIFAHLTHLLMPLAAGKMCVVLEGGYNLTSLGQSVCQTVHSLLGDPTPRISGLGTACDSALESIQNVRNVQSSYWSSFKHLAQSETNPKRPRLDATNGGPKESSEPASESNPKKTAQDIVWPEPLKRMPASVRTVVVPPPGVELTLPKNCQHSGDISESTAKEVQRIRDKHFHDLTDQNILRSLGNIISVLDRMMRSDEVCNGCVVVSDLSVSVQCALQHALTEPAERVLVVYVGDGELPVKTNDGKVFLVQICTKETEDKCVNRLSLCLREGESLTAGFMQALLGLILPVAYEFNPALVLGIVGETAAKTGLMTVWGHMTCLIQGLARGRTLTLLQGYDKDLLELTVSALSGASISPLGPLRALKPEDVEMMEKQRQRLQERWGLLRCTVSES

HDAC8 [3] = molecular target: T5, HDAC8 (Homo sapiens, UniProt Q9BY41); experiment: HDAC8 (FDL) Fluor de Lys assay; format: biochemical; parameters: obtained from C; Romier (academic laboratory, not a vendor); details: for inhibition at 1 µM / inhibition at 10 µM: read-out: HDAC8 (FDL) percent enzyme inhibition
T5 sequence (Q9BY41 1-377): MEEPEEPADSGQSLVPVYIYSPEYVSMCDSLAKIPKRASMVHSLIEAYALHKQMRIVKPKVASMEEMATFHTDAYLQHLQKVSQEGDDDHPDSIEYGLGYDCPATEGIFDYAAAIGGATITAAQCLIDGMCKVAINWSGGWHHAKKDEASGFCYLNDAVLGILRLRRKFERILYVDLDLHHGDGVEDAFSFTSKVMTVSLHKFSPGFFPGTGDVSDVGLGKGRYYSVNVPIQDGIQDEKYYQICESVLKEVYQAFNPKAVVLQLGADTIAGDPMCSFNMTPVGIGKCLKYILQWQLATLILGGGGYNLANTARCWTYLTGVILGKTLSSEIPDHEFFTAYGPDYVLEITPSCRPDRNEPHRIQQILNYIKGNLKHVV

HDAC1 [4] = molecular target: T2, HDAC1; experiment: HDAC-Glo I/II assay, HDAC1; format: biochemical; details: recombinant human HDAC1, HDAC-Glo; read-out: pIC50 HDAC1 Glo (converted)
HDAC2 = molecular target: T6, HDAC2 (Homo sapiens, UniProt Q92769); experiment: HDAC-Glo I/II assay, HDAC2; format: biochemical; details: recombinant human HDAC2, HDAC-Glo; read-out: pIC50 HDAC2 Glo (converted)
T6 construct: purchased BPS Bioscience 50002

HDAC3/NcoR2 complex = molecular target: T7, HDAC3/NcoR2 complex (Homo sapiens, UniProt O15379); experiment: HDAC-Glo I/II assay, HDAC3/NcoR2 complex; format: biochemical; details: recombinant human HDAC3/NcoR2 complex, read-out: pIC50 HDAC3 Glo (converted)
T7 construct: purchased BPS Bioscience 50003

HDAC6 [5] = molecular target: T3, HDAC6; experiment: HDAC-Glo I/II assay, HDAC6; format: biochemical; details: recombinant human HDAC6, HDAC-Glo; read-out: pIC50 HDAC6 Glo (converted)
HDAC8 [6] = molecular target: T5, HDAC8; experiment: HDAC-Glo I/II assay, HDAC8; format: biochemical; parameters: purchased BPS Bioscience 50008; details: recombinant human HDAC8, HDAC-Glo; read-out: pIC50 HDAC8 Glo (converted)
[7] = molecular target: T8, HDAC10-nanoluciferase fusion in HeLa cells (Homo sapiens, UniProt Q969S8); experiment: BRET intracellular target engagement assay, HDAC10
T8 sequence (Q969S8 1-669): T1 sequence (Q969S8 1-669)

[8] = two separate measurements, each made in triplicate, read-out: HDAC10 FRET IC50
[9] = TR-FRET, 60 min at rt, read-out: pIC50 HDAC10 FRET (converted)

T2 sequence (Q13547 whole entry): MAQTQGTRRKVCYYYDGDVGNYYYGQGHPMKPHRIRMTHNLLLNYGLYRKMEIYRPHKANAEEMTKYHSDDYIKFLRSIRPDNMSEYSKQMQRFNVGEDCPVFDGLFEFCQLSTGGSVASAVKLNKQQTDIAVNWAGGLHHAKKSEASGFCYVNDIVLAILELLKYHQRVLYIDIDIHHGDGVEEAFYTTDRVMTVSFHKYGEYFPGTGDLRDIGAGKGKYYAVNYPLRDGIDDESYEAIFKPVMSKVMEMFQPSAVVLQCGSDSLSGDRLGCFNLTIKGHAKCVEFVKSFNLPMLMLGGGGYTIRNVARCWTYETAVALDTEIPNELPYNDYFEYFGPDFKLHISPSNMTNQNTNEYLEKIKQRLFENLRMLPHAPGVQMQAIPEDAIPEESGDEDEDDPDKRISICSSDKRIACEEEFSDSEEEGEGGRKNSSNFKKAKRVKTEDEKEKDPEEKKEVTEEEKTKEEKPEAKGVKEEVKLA
T6 sequence (Q92769 whole entry): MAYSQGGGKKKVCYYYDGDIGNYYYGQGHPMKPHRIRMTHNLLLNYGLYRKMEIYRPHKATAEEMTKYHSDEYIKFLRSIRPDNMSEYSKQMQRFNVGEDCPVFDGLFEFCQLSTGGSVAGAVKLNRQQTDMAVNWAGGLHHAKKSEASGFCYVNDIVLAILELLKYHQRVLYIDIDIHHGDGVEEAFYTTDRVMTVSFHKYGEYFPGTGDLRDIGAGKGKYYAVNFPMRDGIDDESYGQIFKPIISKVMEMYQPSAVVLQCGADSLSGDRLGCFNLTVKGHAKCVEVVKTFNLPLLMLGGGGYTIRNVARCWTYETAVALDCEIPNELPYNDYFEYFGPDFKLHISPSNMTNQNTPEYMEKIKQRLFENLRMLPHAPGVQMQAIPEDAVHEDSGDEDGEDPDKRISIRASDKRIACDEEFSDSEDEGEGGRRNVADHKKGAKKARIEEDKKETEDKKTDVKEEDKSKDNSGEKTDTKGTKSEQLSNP
T7 sequence (O15379 whole entry): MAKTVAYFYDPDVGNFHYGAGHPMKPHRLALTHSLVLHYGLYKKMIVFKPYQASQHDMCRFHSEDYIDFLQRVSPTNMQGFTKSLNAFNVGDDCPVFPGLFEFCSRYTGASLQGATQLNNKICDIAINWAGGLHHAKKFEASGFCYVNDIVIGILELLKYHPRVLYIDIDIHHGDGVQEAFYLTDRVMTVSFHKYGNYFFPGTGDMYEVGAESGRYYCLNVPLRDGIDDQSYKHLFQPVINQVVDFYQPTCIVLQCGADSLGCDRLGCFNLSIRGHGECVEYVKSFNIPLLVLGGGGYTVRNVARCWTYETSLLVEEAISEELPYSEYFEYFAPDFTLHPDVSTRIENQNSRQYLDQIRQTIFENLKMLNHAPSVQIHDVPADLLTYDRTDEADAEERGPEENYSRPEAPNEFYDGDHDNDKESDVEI
T7 sequence (Q9Y618 395-489 partner limits assumed): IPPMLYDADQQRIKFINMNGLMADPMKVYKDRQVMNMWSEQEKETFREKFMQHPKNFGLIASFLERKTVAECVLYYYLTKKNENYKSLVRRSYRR

IC50 (TwinStrep-GST-HDAC10; [8]) | inhibition at 1 µM (HDAC1 [1]) [%] | inhibition at 10 µM (HDAC1 [1]) [%] | inhibition at 1 µM (HDAC6 [2]) [%] | inhibition at 10 µM (HDAC6 [2]) [%] | inhibition at 0.1 µM (zebrafish HDAC10) [%] | inhibition at 1 µM (zebrafish HDAC10) [%] | inhibition at 10 µM (zebrafish HDAC10) [%] | inhibition at 1 µM (HDAC8 [3]) [%] | inhibition at 10 µM (HDAC8 [3]) [%] | IC50 (HDAC1 [4]) [µM] | IC50 (HDAC2) [µM] | IC50 (HDAC3/NcoR2 complex) [µM] | IC50 (HDAC6 [5]) [µM] | IC50 (TwinStrep-GST-HDAC10; [9]) [µM] | IC50 (HDAC8 [6]) [µM] | Compound | further results
2.45 µM and 3.43 µM | 8 | 18 | 22 | 46 | 9 | 15 | 50 | 36 | 61 | – | – | – | – | – | – | O=C(NO)C1CCN(Cc2ccccc2)CC1 [DH25, 1-Benzyl-N-hydroxypiperidine-4-carboxamide] | –
1.78 µM and 2.56 µM | 5 | 35 | 11 | 57 | 7 | 24 | 69 | 37 | 70 | – | – | – | – | – | – | O=C(NO)C1CCN(Cc2ccc(-c3ccccc3)cc2)CC1 [DH35, 1-([1,1′-Biphenyl]-4-ylmethyl)-N-hydroxypiperidine-4-carboxamide] | –
– | 2 | 29 | -23 | -3 | 0 | 19 | 68 | 20 | 48 | – | – | – | – | – | – | O=C(NO)C1CCN(CCCc2ccccc2)CC1 [DH53, N-Hydroxy-1-(3-phenylpropyl)-piperidine-4-carboxamide] | –
– | 6 | 20 | -15 | 0 | – | – | – | – | – | – | – | – | – | – | – | O=C(NO)C1CCN(CCNCc2ccccc2)CC1 [DH79, 1-(2-(Benzylamino)ethyl)-N-hydroxypiperidine-4-carboxamide] | IC50 (zebrafish HDAC10): 0.064 ± 0.006 µM; IC50 (HDAC8 [3]): 2 ± 0.3 µM
– | -8 | 10 | – | – | – | – | – | – | – | – | – | – | – | – | – | O=C(NO)C1CCN(CCNCc2ccc(Br)cc2)CC1 [DH88, 1-(2-((4-Bromobenzyl)amino)ethyl)-N-hydroxypiperidine-4-carboxamide] | IC50 (HDAC6 [2]): 15 ± 4 µM; IC50 (zebrafish HDAC10): 0.037 ± 0.004 µM; IC50 (HDAC8 [3]): 0.7 ± 0.05 µM
– | – | – | – | – | – | – | – | – | – | 10 | 25.1 | > 100 | 1 | 0.00631 | 5.01 | CN(CCCC(=O)NO)CCc1nc2ccccc2[nH]1 [DKFZ-773, 4-((2-(Benzimidazol-2-yl)ethyl)(methyl)amino)-N-hydroxybutanamide] | IC50 [7]: 0.126 µM; HDAC10/6 fold selectivity (BRET) ([7]; HDAC10 over HDAC6, from BRET): 315 fold
– | – | – | – | – | – | – | – | – | – | ~39.8 | 50.1 | > 100 | 12.6 | 0.00794 | 10 | CN(CCCC(=O)NO)CCCc1nc2ccccc2[nH]1 [DKFZ-805, 4-((3-(Benzimidazol-2-yl)propyl)(methyl)amino)-N-hydroxybutanamide] | –
– | – | – | – | – | – | – | – | – | – | 50.1 | 79.4 | > 100 | 25.1 | 0.02 | 25.1 | CN(CCCNC(=O)c1ccccc1)CCCC(=O)NO [DKFZ-806, N-(3-((4-(Hydroxyamino)-4-oxobutyl)(methyl)amino)propyl)benzamide] | –

Compound | IC50 (TwinStrep-GST-HDAC10; [8]) | inhibition at 1 µM (HDAC1 [1]) [%] | inhibition at 10 µM (HDAC1 [1]) [%] | inhibition at 1 µM (HDAC6 [2]) [%] | inhibition at 10 µM (HDAC6 [2]) [%] | inhibition at 0.1 µM (zebrafish HDAC10) [%] | inhibition at 1 µM (zebrafish HDAC10) [%] | inhibition at 10 µM (zebrafish HDAC10) [%] | inhibition at 1 µM (HDAC8 [3]) [%] | inhibition at 10 µM (HDAC8 [3]) [%] | IC50 (HDAC1 [4]) [µM] | IC50 (HDAC2) [µM] | IC50 (HDAC3/NcoR2 complex) [µM] | IC50 (HDAC6 [5]) [µM] | IC50 (TwinStrep-GST-HDAC10; [9]) [µM] | IC50 (HDAC8 [6]) [µM] | further results
O=C(NO)C1CCN(CCc2ccccc2)CC1 [DH22, N-Hydroxy-1-phenethylpiperidine-4-carboxamide] | 0.175 µM and 0.26 µM | -1 | 7 | -2 | 17 | 13 | 20 | 80 | 27 | 56 | – | – | – | – | – | – | –

Reference: patent US20220151962A1, “NOVEL INHIBITORS OF HISTONE DEACETYLASE 10” (Deutsches Krebsforschungszentrum, priority 2019, published 2022)
